Reference: PubChem BioAssay (NCI)
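Method: 48-hour compound exposure of cells in 96-well plates, five concentrations, linear interpolation of endpoints. TGI is the concentration that stops growth completely.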

What was measured:
Assay in all cases: growth of human tumour cells (NCI), 48 h
HCT-15 colon = test system: HCT-15 colon
NCI-H522 lung = test system: NCI-H522 lung
BT-549 breast = test system: BT-549 breast
LOX IMVI melanoma = test system: LOX IMVI melanoma
OVCAR-3 ovarian = test system: OVCAR-3 ovarian
SK-OV-3 ovarian = test system: SK-OV-3 ovarian
UACC-257 melanoma = test system: UACC-257 melanoma
MCF7 breast = test system: MCF7 breast
IGROV1 ovarian = test system: IGROV1 ovarian
SNB-19 CNS = test system: SNB-19 CNS
786-0 renal = test system: 786-0 renal
SK-MEL-5 melanoma = test system: SK-MEL-5 melanoma
NCI-H23 lung = test system: NCI-H23 lung
OVCAR-4 ovarian = test system: OVCAR-4 ovarian
SW-620 colon = test system: SW-620 colon
NCI-H226 lung = test system: NCI-H226 lung
TK-10 renal = test system: TK-10 renal
HOP-92 NSCLC = test system: HOP-92 NSCLC
M14 melanoma = test system: M14 melanoma
ACHN renal = test system: ACHN renal
SK-MEL-2 melanoma = test system: SK-MEL-2 melanoma
DU-145 prostate = test system: DU-145 prostate
MALME-3M melanoma = test system: MALME-3M melanoma
A549 NSCLC = test system: A549 NSCLC
UACC-62 melanoma = test system: UACC-62 melanoma
SF-295 CNS = test system: SF-295 CNS
SN12C renal = test system: SN12C renal
HS 578T breast = test system: HS 578T breast
PC-3 prostate = test system: PC-3 prostate
KM12 colon = test system: KM12 colon
HCC-2998 colon = test system: HCC-2998 colon
CCRF-CEM leukemia = test system: CCRF-CEM leukemia
CAKI-1 renal = test system: CAKI-1 renal
A498 renal = test system: A498 renal
SK-MEL-28 melanoma = test system: SK-MEL-28 melanoma
OVCAR-5 ovarian = test system: OVCAR-5 ovarian
UO-31 renal = test system: UO-31 renal
NCI-H460 lung = test system: NCI-H460 lung
EKVX NSCLC = test system: EKVX NSCLC
MDA-MB-435 = test system: MDA-MB-435
COLO 205 colon = test system: COLO 205 colon
SF-539 CNS = test system: SF-539 CNS
SR leukemia = test system: SR leukemia
MDA-N = test system: MDA-N
OVCAR-8 ovarian = test system: OVCAR-8 ovarian
MDA-MB-231 breast = test system: MDA-MB-231 breast
SF-268 CNS = test system: SF-268 CNS

`Cc1ccc2c(=O)cc(-c3cccc(Cl)c3)[nH]c2n1` was tested, and the TGI (HCT-15 colon) was greater than 35.8 µM, the TGI (NCI-H522 lung) was 1.61 µM and the TGI (BT-549 breast) was greater than 100 µM. It also gave a TGI (LOX IMVI melanoma) greater than 100 µM, a TGI (OVCAR-3 ovarian) of 0.0274 µM and a TGI (SK-OV-3 ovarian) greater than 100 µM. For the same compound, the TGI (UACC-257 melanoma) was greater than 100 µM, the TGI (MCF7 breast) was greater than 36 µM and the TGI (IGROV1 ovarian) was greater than 100 µM. The TGI (SNB-19 CNS) was greater than 100 µM, the TGI (786-0 renal) was greater than 100 µM and the TGI (SK-MEL-5 melanoma) was 4.7 µM. It also gave a TGI (NCI-H23 lung) greater than 31.6 µM, a TGI (OVCAR-4 ovarian) greater than 100 µM and a TGI (SW-620 colon) greater than 100 µM. The TGI (NCI-H226 lung) was 25.9 µM, the TGI (TK-10 renal) was greater than 100 µM and the TGI (HOP-92 NSCLC) was greater than 100 µM. The TGI (M14 melanoma) was greater than 100 µM, the TGI (ACHN renal) was greater than 100 µM and the TGI (SK-MEL-2 melanoma) was greater than 100 µM. The TGI (DU-145 prostate) was greater than 100 µM, the TGI (MALME-3M melanoma) was greater than 100 µM and the TGI (A549 NSCLC) was greater than 100 µM. For the same compound, the TGI (UACC-62 melanoma) was greater than 100 µM, the TGI (SF-295 CNS) was 1.36 µM and the TGI (SN12C renal) was greater than 100 µM. It also gave a TGI (HS 578T breast) greater than 100 µM, a TGI (PC-3 prostate) greater than 100 µM and a TGI (KM12 colon) greater than 37.5 µM. For the same compound, the TGI (HCC-2998 colon) was 41.5 µM, the TGI (CCRF-CEM leukemia) was greater than 100 µM and the TGI (CAKI-1 renal) was greater than 100 µM. It also gave a TGI (A498 renal) greater than 100 µM, a TGI (SK-MEL-28 melanoma) greater than 100 µM and a TGI (OVCAR-5 ovarian) greater than 100 µM. It also gave a TGI (UO-31 renal) greater than 100 µM, a TGI (NCI-H460 lung) greater than 100 µM and a TGI (EKVX NSCLC) greater than 100 µM. The TGI (MDA-MB-435) was 0.0463 µM, the TGI (COLO 205 colon) was greater than 35.8 µM and the TGI (SF-539 CNS) was 0.0443 µM. It also gave a TGI (SR leukemia) greater than 100 µM, a TGI (MDA-N) greater than 100 µM and a TGI (OVCAR-8 ovarian) greater than 100 µM. It also gave a TGI (MDA-MB-231 breast) of 3.63 µM and a TGI (SF-268 CNS) greater than 100 µM.
